# Measured values from patent publication US8313736B2, “Chemically stable ingredients as lemon odorant” (Firmenich SA, priority 2008, dated 2012).
# Experiments:
# [1] = test system: Mammalian Erythrocyte Micronucleus; assay: In vivo test for clastogenic effects, Mammalian Erythrocyte Micronucleus Test (OECD 474)
# From the text: In vivo test for clastogenic effects performed on 3,6,7-trimethyl-2,6-octadienenitrile and 3,7-dimethyl-2,6-octadienenitrile under the conditions required by the standard test protocol for Mammalian Erythrocyte Micronucleus Test (OECD 474, OECD web site http://lysander.sourceoecd.org/v1=155221/c1=19/nw=1/rpsv/ij/oecdjournals/1607310x/v1n 4/s39/p1) gave the following results: • 3,6,7-trimethyl-2,6-octadienenitrile: the test was negative (i.e. no perceived toxicity) in the dose range between 200-1200 mg/kg. • 3,7-dimethyl-2,6-octadienenitrile: the test was positive (i.e. perceived toxicity) in the dose range between 500-1250 mg/kg (overlapping the dose range of the invention compound herein above). This ingredient has been banned for its clastogenic effect.
# [2] = reason for ban; cited from earlier work
SMILES,Clastogenicity (induction of chromosome-damages) ([1]; E and Z isomers or a mixture thereof),Mammalian Erythrocyte Micronucleus Test result (clastogenic effects) ([1]; dose range between 200-1200 mg/kg),Mammalian Erythrocyte Micronucleus Test result (clastogenic effects) ([1]; dose range between 500-1250 mg/kg),Mutagenicity [2]
"CC(=CC#N)CCC(C)=C(C)C [3,6,7-trimethyl-2,6-octadienenitrile]",not clastogenic,negative,,
"CC(C)=CCCC(C)=CC#N [3,7-dimethyl-2,6-octadienenitrile]",,,positive,mutagenic
